Several values for one entry are separate records, joined by “and”; a condition that tells them apart may be missing. Identical values can stand only once.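 48-hour exposure; five concentrations; linearly interpolated endpoints. Abbreviation: GI50, concentration required for 50% inhibition of growth. TGI is the concentration that stops growth completely.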
How the values were obtained:
Assay in all cases: NCI anticancer screen, dose series, 48 h
CAKI-1 renal = test system: CAKI-1 renal
HCC-2998 colon = test system: HCC-2998 colon
HCT-15 colon = test system: HCT-15 colon
HT29 colon = test system: HT29 colon
K-562 leukemia = test system: K-562 leukemia
LOX IMVI melanoma = test system: LOX IMVI melanoma
PC-3 prostate = test system: PC-3 prostate
SK-MEL-28 melanoma = test system: SK-MEL-28 melanoma
SK-OV-3 ovarian = test system: SK-OV-3 ovarian
TK-10 renal = test system: TK-10 renal

SMILES | GI50 (CAKI-1 renal) [µM] | GI50 (HCC-2998 colon) | TGI (HCC-2998 colon) | GI50 (HCT-15 colon) [µM] | GI50 (HT29 colon) [µM] | TGI (HT29 colon) | GI50 (K-562 leukemia) | TGI (K-562 leukemia) | GI50 (LOX IMVI melanoma) [µM] | TGI (LOX IMVI melanoma) | GI50 (PC-3 prostate) [µM] | TGI (PC-3 prostate) | TGI (SK-MEL-28 melanoma) | GI50 (SK-OV-3 ovarian) [µM] | TGI (SK-OV-3 ovarian) | TGI (CAKI-1 renal) | TGI (HCT-15 colon) | GI50 (SK-MEL-28 melanoma) [µM] | GI50 (TK-10 renal) | TGI (TK-10 renal)
C/C=C1\C[C@@H]2C(OC)Nc3cc(O)c(OC)cc3C(=O)N2C1 (stereo not given in full) | 0.00752 | < 0.0178 µM | 0.0358 µM and 0.023 µM | 0.00733 | 0.0075 | 0.16 µM and < 0.215 µM | 0.00347 µM | 2.74 µM | 0.0035 | 0.0825 µM | 0.0221 | 0.404 µM and 0.478 µM | 0.0295 µM and 0.0176 µM | 0.00827 | 2.37 µM |  |  |  |  | 
C=CCCC(O)c1ccc(CCCCCCCCCCC)o1 (stereo not given) | 16 | 18.4 µM | 36.5 µM | 17 | 16.1 | 33.5 µM | 38.6 µM | > 100 µM | 31.8 | 47.2 µM | 18.8 | 36.6 µM | 29.6 µM | 16.9 | 33.8 µM | 31.5 µM | 31.5 µM | 14.9 | 15.8 µM | 31.9 µM
CN1CCN(CCCN2c3ccccc3Sc3ccc(C(F)(F)F)cc32)CC1 | 1.55 | 1.42 µM and 1.64 µM and 3.82 µM | 3.02 µM and 3.21 µM and 8.68 µM | 2.43 | 1.53 | 3.06 µM and 7.61 µM and 5.88 µM | 2.13 µM and 2.01 µM and 4.6 µM | 4.27 µM and 28.6 µM | 1.59 | 3.28 µM and 8.79 µM and 11.2 µM | 2.31 | 8.42 µM and 16.8 µM and 17.5 µM | 3.27 µM and 3.46 µM and 3.58 µM | 1.92 | 4.15 µM and 27.7 µM and 28.2 µM | 3.36 µM and 22.4 µM and 23 µM | 6.57 µM and 17.3 µM and 21.3 µM |  | 1.78 µM and 4.01 µM and 11.6 µM | 3.23 µM and 12.1 µM and 24.8 µM
O=[N+]([O-])c1ccc(NN=C2c3ccccc3Cc3ccccc32)c([N+](=O)[O-])c1 |  |  | > 100 µM |  |  | 22.2 µM |  | > 100 µM |  | > 100 µM |  | > 100 µM | > 100 µM |  | > 100 µM | > 100 µM | > 100 µM |  |  | > 100 µM
O=C1c2ccccc2CCC1(Br)Br | 1.65 | 3.88 µM | 9.19 µM | 0.743 | 2.28 | 4.43 µM | 0.357 µM | 2.02 µM | 1.48 | 2.9 µM | 4.14 | 16.9 µM | 4.65 µM | 6.12 | 18.2 µM | 3.04 µM | 2.24 µM | 2.08 | 1.5 µM | 2.88 µM
Cc1[nH]c2ccccc2c1C1=CC(=O)C=CC1=O | 5.66 | 15.7 µM | 29.4 µM | 10.9 | 13.6 | 40.1 µM |  |  | 9.77 | 22.3 µM | 12.7 | 30 µM | 27.4 µM | 14.5 | 33.5 µM | 22.6 µM | 27.1 µM | 14.1 | 2.32 µM | 5.85 µM
CNC(=O)c1c(NC(=O)c2ccc(C(C)C)cc2)sc2c1CCC(=O)C2 | 0.31 | 0.906 µM | 2.94 µM | 0.216 | 0.338 | 1.6 µM | 0.108 µM | > 100 µM | 0.24 | 1.29 µM | 0.152 | 1.32 µM | 3.39 µM | 2.47 | 9.09 µM | 1.5 µM | 1.47 µM | 0.748 | 0.504 µM | 13 µM
COc1ccc(NC(=O)CC(=O)n2nc(-c3ccccc3)c(N=Nc3ccccc3C)c2-c2ccccc2)cc1 |  |  | > 100 µM |  |  | > 100 µM |  | > 100 µM |  | > 100 µM |  | 32.8 µM | > 63.2 µM |  | 36.3 µM | > 64.8 µM | > 61.3 µM |  |  | 47.2 µM
CC(C)NCCCCCNc1cc(O)cc2cccnc12 | > 100 | > 44.2 µM | > 100 µM | > 100 | 31.6 | > 100 µM | > 100 µM | > 100 µM | > 100 | > 100 µM | > 100 | > 100 µM | > 100 µM | > 100 | > 100 µM | > 100 µM | > 100 µM | > 100 | > 100 µM | > 100 µM
Cc1ccc2nc(CC(=O)c3ccc4ccccc4c3)c(=O)[nH]c2c1 |  |  | > 100 µM |  |  | > 100 µM |  | > 100 µM |  | > 100 µM |  | > 100 µM | > 100 µM |  | > 100 µM | > 100 µM | > 100 µM |  |  | > 100 µM
Cc1cccc2c1NC(=O)C2(c1ccc(O)cc1)c1ccc(O)cc1 | 26.2 | 0.0706 µM | 24.6 µM | 0.53 | 15.7 | 46.5 µM | 19.1 µM | 99.5 µM | 6.76 | 25.6 µM | 0.0497 | > 62 µM | 46.5 µM | 19.2 | 42 µM | > 100 µM | > 100 µM | 16.4 | 0.0206 µM | 39.1 µM
O=C(c1ccncc1)N1CCN(C2=NS(=O)(=O)c3ccccc3N2c2ccccc2)CC1 | 30.3 | 16.3 µM | 37.6 µM | > 100 | 19 | 57.8 µM | 7.79 µM | > 100 µM | 11.5 | > 100 µM | 22.2 | > 100 µM | 38.7 µM | 13.4 | > 100 µM | 88.5 µM | > 100 µM | 15.6 | 31.5 µM | 77.1 µM
CC(=O)Nc1ccc(S(=O)(=O)c2ccc(NC(C)=O)cc2)cc1 | > 100 | > 100 µM | > 100 µM | > 100 | > 100 | > 100 µM | > 100 µM | > 100 µM | > 100 | > 100 µM | > 100 | > 100 µM | > 100 µM | > 100 | > 100 µM | > 100 µM | > 100 µM | > 100 | > 100 µM | > 100 µM
Nc1nc(Cl)nc2c1ncn2C1CCC(COP(=O)(O)OP(=O)(O)OP(=O)(O)O)O1 (stereo not given) |  |  | 86.1 µM |  |  | 90.9 µM |  |  |  | 78.5 µM |  | 64.3 µM | 54.1 µM |  | > 100 µM | > 100 µM | 79.3 µM |  |  | > 100 µM
C/C=C(\C)C(=O)OC1C2C(C)C(=O)OC2C(O)C(C)C2C=CC(=O)C21C (stereo not given) |  |  | 29.8 µM |  |  | 32 µM |  | 17.4 µM |  | 28.5 µM |  | 34.1 µM | 28.1 µM |  | 39.6 µM | 28.4 µM | 34.5 µM |  |  | 26.9 µM
Nc1ncnc2c1c(C(=O)NO)cn2C1OC(CO)C(O)C1O (stereo not given) | 0.213 | 0.587 µM | 6.83 µM | 0.213 | 0.39 | > 100 µM | 0.79 µM | > 100 µM | 0.262 | 1.77 µM | 0.286 | > 41.9 µM | 3.63 µM | 0.239 | 2.07 µM | 2.5 µM | 1.89 µM | 0.479 | 0.572 µM | > 31.4 µM
Cc1csc(-c2ccc3c(c2)COC3(CCCN(C)C)c2ccc(F)cc2)c1 (stereo not given) | 1.62 | 1.79 µM | 3.3 µM | 1.85 |  |  | 2.29 µM | 5.18 µM | 1.77 | 3.24 µM | 1.81 | 3.45 µM | 3.3 µM | 1.87 | 3.69 µM | 3.01 µM | 3.51 µM | 1.77 | 1.83 µM | 3.72 µM
Cc1cc2c(=O)c3ccccc3oc2c(C#N)c1C |  |  | > 100 µM |  |  | > 100 µM |  | > 100 µM |  |  |  | > 100 µM | > 100 µM |  | > 100 µM | > 100 µM |  |  |  | > 100 µM
Cc1ccc(C)c(N2C(=O)C(=O)c3c(C)ccc(C)c32)c1 |  |  |  |  |  | 46.4 µM |  | 48.5 µM |  | 31.2 µM |  | > 100 µM | > 100 µM |  | > 100 µM | 87.1 µM | 27.2 µM |  |  | 85 µM
N#C/C(=C\c1ccc([N+](=O)[O-])s1)c1nc2cc(Br)ccc2s1 | 0.218 |  |  | 0.0707 | 1.92 | > 100 µM | 0.0561 µM | > 40.6 µM | 0.171 | 0.395 µM | 0.435 | 2.54 µM | > 100 µM | 1.64 | > 100 µM | 1.01 µM | 0.264 µM | 0.346 | 0.918 µM | > 100 µM
COc1cc([N+](=O)[O-])c(OC)cc1-c1nc2n(c1/C(N)=N/C(=N)N)CCS2 |  | > 100 µM | > 100 µM | > 100 | > 100 | > 100 µM | > 100 µM | > 100 µM | 89.1 | > 100 µM | > 100 | > 100 µM | > 100 µM | > 100 | > 100 µM |  | > 100 µM | > 100 | 20.3 µM | 96.4 µM
CCCCC/C=C\C/C=C/CCCCCCCCNC(=O)Nc1ccc([N+](=O)[O-])cc1 | 5.9 | 15.7 µM | > 100 µM | 8.81 | 25.1 | > 100 µM |  |  | 5.75 | > 100 µM | 4.45 | > 100 µM | > 100 µM | 40.7 | > 100 µM | > 100 µM | > 100 µM | 32.7 | > 100 µM | > 100 µM
